Our source for the AC50 values is US8889667B2 (Agios Pharmaceuticals, Inc, priority 2010, dated 2014).

Structures are written as SMILES. Some results are limits rather than exact numbers.

By AC50 is commonly meant the concentration giving half of the maximal activity seen. Higher therefore signals activity only at high concentration.

The assay has as its target PKM2 (Homo sapiens, UniProt P14618). The experiment in a line: PKM2 Assay (activation, LDH-coupled, absorbance at 340 nm). The class given is biochemical. The method, boiled down: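 Human PKM2 (50 ng/well) was preincubated with compound and coupling mix for 30 min at 4 °C without ADP. Reactions were then started with ADP (0.7 mM) alongside PEP 0.15 mM, NADH 180 μM and LDH, in Tris pH 7.5/KCl/MgCl2/DTT/BSA buffer. A340 was followed at 25 °C and activation reported as AC50.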

PKM2, sequence (P14618 whole entry): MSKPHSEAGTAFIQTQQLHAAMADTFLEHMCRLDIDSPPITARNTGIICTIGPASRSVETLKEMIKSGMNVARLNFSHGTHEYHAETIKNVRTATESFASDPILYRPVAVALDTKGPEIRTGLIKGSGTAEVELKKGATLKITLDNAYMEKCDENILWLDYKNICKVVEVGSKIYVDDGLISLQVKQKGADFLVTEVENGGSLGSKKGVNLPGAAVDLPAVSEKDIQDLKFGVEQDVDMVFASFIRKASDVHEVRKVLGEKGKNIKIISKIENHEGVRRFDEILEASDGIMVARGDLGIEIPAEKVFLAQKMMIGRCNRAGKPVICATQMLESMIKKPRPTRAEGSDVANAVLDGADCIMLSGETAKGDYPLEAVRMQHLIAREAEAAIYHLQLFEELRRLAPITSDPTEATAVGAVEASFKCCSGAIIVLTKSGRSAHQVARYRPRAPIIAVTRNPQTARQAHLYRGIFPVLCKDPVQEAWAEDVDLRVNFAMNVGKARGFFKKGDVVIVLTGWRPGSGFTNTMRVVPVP

Regarding `C[C@@H]1CN(Cc2cc(F)c(F)cc2F)CCN1C(=O)c1ccc(NS(=O)(=O)c2cccc3cccnc23)cc1` [Compound 120, (R)—N-(4-(2-methyl-4-(2,4,5-trifluorobenzyl)piperazine-1-carbonyl)phenyl)quinoline-8-sulfonamide], the AC50 (Table 4) was < 100 nM.
Still for that read-out and setting: next, `CC(C)OC(=O)N1CCN(C(=O)c2ccc(NS(=O)(=O)c3cccc4cccnc34)cc2)[C@@H](C)C1` [Compound 108, (S)-isopropyl 3-methyl-4-(4-(quinoline-8-sulfonamido)benzoyl)piperazine-1-carboxylate]: < 100 nM.
Compound `O=C(OC1CCOCC1)N1CCN(C(=O)c2ccc(NS(=O)(=O)c3cccc4cccnc34)c(OC(F)(F)F)c2)CC1` [Compound 314, tetrahydro-2H-pyran-4-yl-4-(4-(quinoline-8-sulfonamido)-3-(trifluoromethoxy)benzoyl)piperazine-1-carboxylate] yielded an AC50 (Table 5) of 1000 to 20000 nM.
Same read-out and setting: next, `O=C(c1ccc(NS(=O)(=O)c2cccc3cccnc23)c(OC(F)(F)F)c1)N1CCN(CC2CCCC2)CC1` [Compound 336, N-(4-(4-(cyclopentylmethyl)piperazine-1-carbonyl)-2-(trifluoromethoxy)phenyl)quinoline-8-sulfonamide]: 500 to 1000 nM; `O=C(c1ccc(NS(=O)(=O)c2cccc3cccnc23)cc1)N1CCN(Cc2cc[nH]n2)CC1` [Compound 384]: < 100 nM.
`CC(C)[C@H]1CN(Cc2ccc(F)cc2)CCN1C(=O)c1ccc(NS(=O)(=O)c2cccc3cccnc23)cc1` [Compound 175]: the AC50 (Table 4) is 1000 to 20000 nM.
In the case of `O=C(c1cnc(NS(=O)(=O)c2cccc3cccnc23)cn1)N1CCN(CC2CC2)CC1` [Compound 451, N-(5-(4-(cyclopropylmethyl)piperazine-1-carbonyl)pyrazin-2-yl)quinoline-8-sulfonamide], the AC50 (Table 5) is > 20000 nM.
On the same count and under the same terms, next, `CC(C1CC1)N1CCN(C(=O)c2ccc(NS(=O)(=O)c3cccc4cccnc34)cc2)CC1` (centres unmarked) [Compound 442, N-(4-(4-(1-cyclopropylethyl)piperazine-1-carbonyl)phenyl)quinoline-8-sulfonamide]: < 100 nM.
On the same count and under the same terms, next, `COc1cccnc1CN1CCN(C(=O)c2ccc(NS(=O)(=O)c3cccc4cccnc34)c(OC(F)(F)F)c2)CC1` [Compound 373, N-(4-(4-((3-methoxypyridin-2-yl)methyl)piperazine-1-carbonyl)-2-(trifluoromethoxy)phenyl)quinoline-8-sulfonamide]: 100 to 500 nM; `O=C(c1ccc(NS(=O)(=O)c2cccc3cccnc23)cc1)N1CCN(C(=O)c2cocn2)CC1` [Compound 347, N-(4-(4-(oxazole-4-carbonyl)piperazine-1-carbonyl)phenyl)quinoline-8-sulfonamide]: 100 to 500 nM.
Consider `O=C(c1ccc(NS(=O)(=O)c2cccc3cccnc23)cc1)N1CC2CCC(C1)N2Cc1ccc(F)cc1` [Compound 219, N-(4-(8-(4-fluorobenzyl)-3,8-diazabicyclo[3.2.1]octane-3-carbonyl)phenyl)quinoline-8-sulfonamide], for which the AC50 (Table 4) lay within 100 to 500 nM.
The same measure, in the same setting: next, `C[C@H]1CN(CC2CCCCO2)CCN1C(=O)c1ccc(NS(=O)(=O)c2cccc3cccnc23)cc1` (stereo partly drawn) [Compound 156, N-(4-((2S)-2-methyl-4-((tetrahydro-2H-pyran-2-yl)methyl)piperazine-1-carbonyl)phenyl)quinoline-8-sulfonamide]: 500 to 1000 nM.
On to `O=C(c1ccc(NS(=O)(=O)c2cccc3cccnc23)c(OC(F)(F)F)c1)N1CCN(Cc2ccc(F)c(Cl)c2)CC1` [Compound 376, N-(4-(4-(3-chloro-4-fluorobenzyl)piperazine-1-carbonyl)-2-(trifluoromethoxy)phenyl)quinoline-8-sulfonamide], for which, under “Table 5”, the AC50 was 100 to 500 nM.
The same measure, in the same setting: next, `O=C(OCCC1CCCC1)N1CCN(C(=O)c2ccc(NS(=O)(=O)c3cccc4cccnc34)c(OC(F)(F)F)c2)CC1` [Compound 312, 2-cyclopentylethyl-4-(4-(quinoline-8-sulfonamido)-3-(trifluoromethoxy)benzoyl)piperazine-1-carboxylate]: 500 to 1000 nM; `O=C(c1ccc(NS(=O)(=O)c2cccc3cccnc23)c(OC(F)(F)F)c1)N1CCN(Cc2ccc(F)c(F)c2)CC1` [Compound 378, N-(4-(4-(3,4-difluorobenzyl)piperazine-1-carbonyl)-2-(trifluoromethoxy)phenyl)quinoline-8-sulfonamide]: 100 to 500 nM.
The same measure, in the same setting: next, `CC(c1c(F)cccc1F)N1CCN(C(=O)c2ccc(NS(=O)(=O)c3cccc4cccnc34)cc2)CC1` (centres unmarked) [Compound 357, N-(4-(4-(1-(2,6-difluorophenyl)ethyl)piperazine-1-carbonyl)phenyl)quinoline-8-sulfonamide]: < 100 nM.
For `C[C@@H]1CN(CC2CCCCO2)CCN1C(=O)c1ccc(NS(=O)(=O)c2cccc3cccnc23)cc1` (stereo partly drawn) [Compound 163, N-(4-((2R)-2-methyl-4-((tetrahydro-2H-pyran-2-yl)methyl)piperazine-1-carbonyl)phenyl)quinoline-8-sulfonamide], the AC50 (Table 4) is < 100 nM.
For `O=C(c1ccc(NS(=O)(=O)c2cccc3cccnc23)cc1)N1CCN(Cc2ccc(F)cc2)CC1` [Compound 341, N-(4-(4-(4-fluorobenzyl)piperazine-1-carbonyl)phenyl)quinoline-8-sulfonamide], the AC50 (Table 5) is < 100 nM.
Same read-out and setting: next, `O=C(c1ccc(NS(=O)(=O)c2cccc3cccnc23)cc1)N1CCN(C2(c3ccccc3)CC2)CC1` [Compound 330, N-(4-(4-(1-phenylcyclopropyl)piperazine-1-carbonyl)phenyl)quinoline-8-sulfonamide]: < 100 nM.
As for `CC1CN(Cc2ccc(Cl)c(F)c2)CC(C)N1C(=O)c1ccc(NS(=O)(=O)c2cccc3cccnc23)cc1` (centres unmarked) [Compound 197, N-(4-(4-(4-chloro-3-fluorobenzyl)-2,6-dimethylpiperazine-1-carbonyl)phenyl)quinoline-8-sulfonamide], the AC50 (Table 4) is 100 to 500 nM.
On to `O=C(c1ccc(NS(=O)(=O)c2cccc3cccnc23)cc1)N1CCN(C(=O)c2cc(F)cc(F)c2)CC1` [Compound 345, N-(4-(4-(3,5-difluorobenzoyl)piperazine-1-carbonyl)phenyl)quinoline-8-sulfonamide], for which, under “Table 5”, the AC50 was in the range of 100 to 500 nM.
With `O=C(c1ccc(NS(=O)(=O)c2cccc3cccnc23)cc1)N1CC2CCC(C1)N2CC1CC1` [Compound 221, N-(4-(8-(cyclopropylmethyl)-3,8-diazabicyclo[3.2.1]octane-3-carbonyl)phenyl)quinoline-8-sulfonamide], the AC50 (Table 4) was < 100 nM.
The same measure, in the same setting: next, `C[C@@H]1CN(Cc2ccc(F)c(F)c2F)CCN1C(=O)c1ccc(NS(=O)(=O)c2cccc3cccnc23)cc1` [Compound 118, (R)—N-(4-(2-methyl-4-(2,3,4-trifluorobenzyl)piperazine-1-carbonyl)phenyl)quinoline-8-sulfonamide]: < 100 nM.
Compound `O=C(c1ccc(NS(=O)(=O)c2cccc3cccnc23)c(OC(F)(F)F)c1)N1CCN(Cc2cccc(F)c2F)CC1` [Compound 375, N-(4-(4-(2,3-difluorobenzyl)piperazine-1-carbonyl)-2-(trifluoromethoxy)phenyl)quinoline-8-sulfonamide] showed an AC50 (Table 5) of 100 to 500 nM.
Same read-out and setting: next, `O=C(c1ccc(NS(=O)(=O)c2cccc3cccnc23)cc1)N1CCN(C(=O)C2CCCO2)CC1` (centres unmarked) [Compound 443, N-(4-(4-(tetrahydrofuran-2-carbonyl)piperazine-1-carbonyl)phenyl)quinoline-8-sulfonamide]: 500 to 1000 nM.
With `CC1CN(Cc2cc(F)c(F)cc2F)CC(C)N1C(=O)c1ccc(NS(=O)(=O)c2cccc3cccnc23)cc1` (centres unmarked) [Compound 203, N-(4-(2,6-dimethyl-4-(2,4,5-trifluorobenzyl)piperazine-1-carbonyl)phenyl)quinoline-8-sulfonamide], the concentration at half-maximal activity (AC50) (Table 4) was < 100 nM.
Turning to `CC(C)(c1cccc(F)c1)N1CCN(C(=O)c2ccc(NS(=O)(=O)c3cccc4cccnc34)cc2)CC1` [Compound 405], the AC50 (Table 5) was < 100 nM.
Still for that read-out and setting: next, `O=C(c1ccc(NS(=O)(=O)c2cccc3cccnc23)cc1Cl)N1CCN(CC2CCCCO2)CC1` (centres unmarked) [Compound 439, N-(3-chloro-4-(4-((tetrahydro-2H-pyran-2-yl)methyl)piperazine-1-carbonyl)phenyl)quinoline-8-sulfonamide]: 100 to 500 nM.
`C[C@@H]1CN(C(=O)O[C@@H]2CCCOC2)CCN1C(=O)c1ccc(NS(=O)(=O)c2cccc3cccnc23)cc1` [Compound 127, (R)—((R)-tetrahydro-21′-pyran-3-yl)-3-methyl-4-(4-(quinoline-8-sulfonamido)benzoyl)piperazine-1-carboxylate] had an AC50 (Table 4) of 100 to 500 nM.
With `O=C(c1ccc(NS(=O)(=O)c2cccc3cccnc23)cc1)N1CCN(C2(c3ccc(F)cc3)CC2)CC1` [Compound 399, N-(4-(4-(1-(4-fluorophenyl)cyclopropyl)piperazine-1-carbonyl)phenyl)quinoline-8-sulfonamide], the AC50 (Table 5) was < 100 nM.
Compound `CC(C)(c1ccccc1F)N1CCN(C(=O)c2ccc(NS(=O)(=O)c3cccc4cccnc34)cc2)CC1` [Compound 409, N-(4-(4-(2-(2-fluorophenyl)propan-2-yl)piperazine-1-carbonyl)phenyl)quinoline-8-sulfonamide] came in with an AC50 (Table 5) of 100 to 500 nM.
For the compound `CC[C@H]1CN(Cc2ccc(F)cc2)CCN1C(=O)c1ccc(NS(=O)(=O)c2cccc3cccnc23)cc1` [Compound 134, (S)—N-(4-(2-ethyl-4-(4-fluorobenzyl)piperazine-1-carbonyl)phenyl)quinoline-8-sulfonamide], the AC50 (Table 4) lay within 100 to 500 nM.
On the same count and under the same terms, next, `C[C@H]1CN(C(=O)c2ccc(NS(=O)(=O)c3cccc4cccnc34)cc2)CCN1C(=O)c1ccccn1` [Compound 100]: 100 to 500 nM.
Take `O=C(c1ccc(NS(=O)(=O)c2cccc3cccnc23)c(OC(F)(F)F)c1)N1CCN(Cc2cncc(F)c2)CC1` [Compound 300]: the AC50 (Table 5) lay within 100 to 500 nM.
As to `C[C@@H]1CN(Cc2ccccc2F)CCN1C(=O)c1ccc(NS(=O)(=O)c2cccc3cccnc23)cc1` [Compound 150, (R)—N-(4-(4-(2-fluorobenzyl)-2-methylpiperazine-1-carbonyl)phenyl)quinoline-8-sulfonamide], the half-maximal activity concentration (AC50) (Table 4) was < 100 nM.
